# Assay results published in PMC7737769, “Pharmacological inhibition of syntenin PDZ2 domain impairs breast cancer cell activities and exosome loading with syndecan and EpCAM cargo” (Journal of Extracellular Vesicles, 2020).
# System: MCF‐7 SyntKO cells
# Assay: Wound-healing (migration) assay, MCF-7 SyntKO
# Assay type: cell-based
# Conditions: 100 µM, 24 h
# Protocol: For migration assays, cells were treated with 1 ng/ml of mitomycin (Sigma M4287) overnight to inhibit cell division. Treated cells were plated in Ibidi culture‐inserts (Ibidi Cat‐80206) for 12 h to reach 90%–95% of confluence with or without compounds (100 µM). A wound was created by removing inserts from the dishes. Medium with or without compounds (100 µM) was refreshed to remove dead cells and the cells were observed under an inverted light microscope (Leica SP2) equipped with a camera. Images were taken by MetaMorph software every 10 min for 24 h. Measurements of cell velocity were calculated using the MetaMorph software.
structure (smiles),measurement,value
CC(C)[C@H](NC(=O)CSc1ccc(Cl)cc1)C(=O)O [Compound C58],cell migration (wound closure),no such effect
